From ChEMBL document CHEMBL1131668, “Purin-8-ones as corticotropin-releasing hormone (CRH-R1) receptor antagonists” (Bioorg Med Chem Lett, 1999)
pKi: −log10 of the molar value.

Biological target: T1, Corticotropin-releasing factor receptor 1 (Homo sapiens, UniProt P34998)
T1 sequence (P34998 whole entry): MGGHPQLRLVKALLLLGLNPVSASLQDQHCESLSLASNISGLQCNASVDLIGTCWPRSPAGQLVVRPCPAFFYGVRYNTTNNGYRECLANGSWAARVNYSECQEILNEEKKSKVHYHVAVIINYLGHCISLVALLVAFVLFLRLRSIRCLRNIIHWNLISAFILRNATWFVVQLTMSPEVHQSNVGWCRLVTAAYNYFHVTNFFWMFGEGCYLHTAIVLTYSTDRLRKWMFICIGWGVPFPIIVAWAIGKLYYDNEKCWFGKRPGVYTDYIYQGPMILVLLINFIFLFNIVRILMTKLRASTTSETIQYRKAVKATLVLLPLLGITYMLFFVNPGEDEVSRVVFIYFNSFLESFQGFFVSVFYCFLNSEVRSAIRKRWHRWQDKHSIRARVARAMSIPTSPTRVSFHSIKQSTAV
Test: Binding affinity for transfected human Corticotropin releasing factor receptor expressed in HEK 293E cells using [125I]TYR-oCRH as the displaced radioligand
Assay type: cell-based, HEK293

SMILES	pKi
CCCCN(CC)c1cc(C)nc2c1n(C)c(=O)n2-c1ccc(C(C)C)cc1Br	8.52
COCCN(CC1CC1)c1nc(C)nc2c1n(C)c(=O)n2-c1ccc(C(C)C)cc1Br	7.91
COCCN(CCOC)c1nc(C)nc2c1n(C)c(=O)n2-c1ccc(C(C)C)cc1Br	6.89
CCN(CCOC)c1nc(C)nc2c1n(C)c(=O)n2-c1ccc(C(C)C)cc1Br	7.32
CCCCN(CC)c1nc(C)nc2c1n(C)c(=O)n2-c1c(C)cc(C)nc1C	6.91
CCCN(CC1CC1)c1nc(C)nc2c1n(C)c(=O)n2-c1c(C)cc(C)nc1C	6.95
CCCN(CCC)c1nc(C)nc2c1n(C)c(=O)n2-c1c(C)cc(C)nc1C	6.59
CCCCN(CC)c1nc(C)nc2c1n(CC1CC1)c(=O)n2-c1ccc(C(C)C)cc1Br	6.93
CCCCN(CC)c1nc(C)cc2c1n(C)c(=O)n2-c1ccc(C(C)C)cc1Br	6.33
COCCN(CCOC)c1nc(C)nc2c1n(C)c(=O)n2-c1c(C)cc(C)cc1C	6.16
CCC(COC)Nc1nc(C)nc2c1n(C)c(=O)n2-c1ccc(C(C)C)cc1Br (configuration not stated)	7.37
CCCCC(CC)Nc1nc(C)nc2c1n(C)c(=O)n2-c1ccc(C(C)C)cc1Br (configuration not stated)	7.82
CCCCN(CC)c1nc(C)nc2c1nc(OCC1CC1)n2-c1ccc(C(C)C)cc1Br	7.51
CCCCN(CC)c1nc(C)nc2c1nc(N1CCOCC1)n2-c1ccc(C(C)C)cc1Br	6.46
CCCCN(CC)c1nc(C)nc2c1nc(OC)n2-c1ccc(C(C)C)cc1Br	8.82
COCCN(Cc1ccccc1)c1nc(C)nc2c1n(C)c(=O)n2-c1ccc(C(C)C)cc1Br	7.58
CCCCN(CC)c1nc(C)nc2c1nc(Cl)n2-c1ccc(C(C)C)cc1Br	8.82
CCCCC(CC)Nc1nc(C)nc2c1n(C)c(=O)n2-c1c(C)cc(C)cc1C (configuration not stated)	7.76
CCCN(CC1CC1)c1nc(C)nc2c1n(C)c(=O)n2-c1c(C)cc(C)cc1C	8.21
CCCCN(CC)c1nc(C)nc2c1nc(O)n2-c1ccc(C(C)C)cc1Br	6.05
CCCN(CCC)c1nc(C)nc2c1n(C)c(=O)n2-c1ccc(C(C)C)cc1Br	8.12
CCCN(CC1CC1)c1nc(C)nc2c1n(C)c(=O)n2-c1ccc(C(C)C)cc1Br	8.24
